Measured values from patent publication US11033518B2, “Pharmaceutical composition containing niclosamide for treating axin-GSK3 interaction-related diseases” (BAOBAB PHARM CO., LTD., priority 2017, dated 2021).

Assays:
[1] = target: T1, Axin2-GSK3 complex (Homo sapiens, UniProt P49841); test: Immunoprecipitation of His-tagged Axin2 from MCF-7 cell lysates; assay type: binding; conditions: total cell lysates of MCF-7 expressing His-tagged Axin2
T1 construct: Triton X-100 lysates of total cells; endogenous in cells; host or cells: MCF-7 cells; GSK3 is endogenous; His-tagged Axin2 comes from a transfected doxycycline-inducible vector
T1 sequence (P49841 whole entry, one chain of several): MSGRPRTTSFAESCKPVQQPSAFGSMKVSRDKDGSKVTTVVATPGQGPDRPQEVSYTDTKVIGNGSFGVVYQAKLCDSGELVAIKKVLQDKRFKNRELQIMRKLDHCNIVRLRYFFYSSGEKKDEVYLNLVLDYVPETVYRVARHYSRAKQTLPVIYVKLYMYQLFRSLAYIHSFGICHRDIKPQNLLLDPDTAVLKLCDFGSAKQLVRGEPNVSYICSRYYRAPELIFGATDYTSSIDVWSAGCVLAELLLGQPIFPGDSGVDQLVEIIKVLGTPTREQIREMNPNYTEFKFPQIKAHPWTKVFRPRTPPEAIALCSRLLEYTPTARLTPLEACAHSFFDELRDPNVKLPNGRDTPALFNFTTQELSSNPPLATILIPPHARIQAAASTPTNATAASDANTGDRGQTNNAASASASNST
Description: In order to confirm whether niclosamide could inhibit Axin-GSK3 interaction, to perform an immunoprecipitation experiment under the condition with or without niclosamide, cell lysates having full-length Axin2 were investigated.
The immunoprecipitation assay was performed as follows (Yook J I, et al. Nat Cell Biol. 8:1398-1406, 2006).
The doxycycline-induced His-tagged Axin2 expression vector was transformed to MCF-7 cell (ATCC, American Type Culture Collection) and was cultured, and was reacted by treating […] (Invitrogen) and niclosamide of each concentration to Triton X-100 lysates of total cells. The protein recovered in beads was subjected to SDS-PAGE, followed by immunoblot analysis, and a control group of 1/20 volume was added.

[2] = system: colorectal cancer cell lines HCT116, SW480 and DLD-1; test: Trypan blue cell viability / apoptosis of colorectal cancer cells; assay type: cell-based; conditions: 48 hours, trypan blue assay
Description: 1×10^5 cells of colorectal cancer cell lines HCT116, SW480 and DLD-1 cell (ATCC, American Type Culture Collection) were cultured overnight in a 6-well plate, and then were washed with PBS, and were cultured in a culture medium treated with niclosamide by each concentration (0 μM, 0.125 μM, 0.25 μM, 0.5 μM, 1 μM, 2 μM, 5 μM and 10 μM) for 48 hours. Apoptosis was measured with trypan blue assay and cell viability was calculated by an equation [1−(number of dead cells/total number of cells)].

[3] = system: Snail, E-cadherin; test: Immunoblot of Snail and E-cadherin in SW480 xenograft tumor; assay type: in vivo, mice; conditions: 50 mg/kg, 200 mg/kg intraperitoneally for 3 days
Description: In order to investigate in vivo MoA of niclosamide controlling Snail-mediated EMT, through xenografts, the change of protein amount of Snail and E-cadherin in the tumor by niclosamide treatment was confirmed. The colorectal cancer cell line, SW480 cells (5×10^6) were subcutaneously injected to nude mice. When the tumor size became 500 mm^3 on average, mice were randomly divided into 3 groups, and a vehicle or niclosamide (50 mg/kg, 200 mg/kg) was intraperitoneally injected for 3 days. After sacrificing mice, the tumor tissue part was separated using Pro-prep protein extraction solution (#17081, Intron), and the amount of protein of Snail and E-cadherin in the tumor sample was measured by immunoblot assay.

[4] = system: TCF/LEF transcriptional activity induced by mutant APC; test: TCF/LEF transcriptional activity in 293 cell transformed by mutant APC; assay type: cell-based; conditions: 0, 0.125, 0.25, 0.5 μM, 24 hours
Description: Based on the results of Examples 2-5 that niclosamide inhibited Wnt activity and EMT through Axin-GSK3 inhibition, whether niclosamide could attenuate the TCF/LEF transcriptional activity induced by mutant APC was confirmed.
After transforming the mutant APC expression vector, pCMV-neo-Bam APC 1-1309 (#16508, Addgene) or pCMV-neo-BamAPC 1-1941 (#16510, Addgene) and Topflash reporter vector to 293 cell (ATCC), niclosamide (0 μM, 0.125 μM, 0.25 μM and 0.5 μM) was treated for 24 hours. The TCF/LEF transcriptional activity was quantified by measuring the luciferase activity as same as Example 2.

[5] = system: HCT116 and SW480 cells; test: Tumor growth of HCT116 and SW480 cells injected into nude mice; assay type: in vivo; conditions: intraperitoneal administration daily
Description: Next, the effect of niclosamide having tumor formation potential in vivo experiment of HCT116 and SW480 cells was investigated.
Colorectal cancer cell lines HCT116 (5×10^6 cells) and SW480 (5×10^6 cells) were mixed in 100 μl PBS and were injected into flank subcutaneous tissues in female athymic nude mice (6 weeks old). Mice were randomly assigned to two groups and a vehicle and niclosamide were intraperitoneally injected daily and they were treated for […]. Niclosamide was dissolved with 10% Cremophor EL (BASF) and 0.9% NaCl and then was intraperitoneally injected. After injection of colorectal cancer cells, mice were observed daily and the weight change was measured twice a week. In addition, when a tumor was observed, it was measured with calipers. The tumor size was calculated by the equation (LXW2)/2. Herein, L is a long diameter of the tumor and W is a short diameter.

[6] = system: HCT116, SW480 and DLD-1 cells; test: Cell mobility of colorectal cancer cells through basement membrane; assay type: cell-based; conditions: nM level, 48 hours
Description: At first, the effect on the cell mobility of colorectal cancer cells of niclosamide was confirmed. Colorectal cancer cell lines HCT116, SW480 and DLD-1 cells were cultured under the condition with or without niclosamide for 48 hours, and then the upper part of the membrane was rubbed with a cotton swab and the number of movements of cells inserted into the basement membrane was stained with 0.25% crystal violet and counted. Cells were counted in five random fields.

[7] = system: TCF/LEF transcriptional activity; test: TCF/LEF reporter (Topflash) dual luciferase assay in colorectal cancer cells; assay type: cell-based; conditions: 0, 0.125, 0.25, 0.5 nM; as concentration increased
Description: At first, after treating niclosamide of nM units at concentrations of 0 nM, 0.125 nM, 0.25 nM and 0.5 nM to colorectal cancer cells for 24 hours, the beta-catenin (β-catenin) activity and TCF/LEF reporter (Topflash) activity of colorectal cancer cells were measured.
The TCF/LEF transcriptional activity was carried out by transformation with 100 ng of a reporter gene and 1 ng of transfection control pRL-SV40-Renilla. The reporter activity was measured with a dual luciferase assay system (Promega) in 48 hours after infection, and was standardized by measuring the co-transformed renilla activity, and the reporter gene activity was represented by light units in proportion to light units obtained from the negative control group.

Compound: O=C(Nc1ccc([N+](=O)[O-])cc1Cl)c1cc(Cl)ccc1O [niclosamide]
- GSK3 which bound to Axin2 [1]: reduced
- apoptosis ([2]; nM concentration): did not occur
- death of colorectal cells ([2]; μM concentration level): induced death
- amount of E-cadherin in tumor [3]: increased
- presence of Snail in tumor [3]: reduced
- TCF/LEF transcriptional activity increased by mutant APC [4]: reduced
- tumor growth of colorectal cancer cells [5]: significantly inhibited
- potential of movements of colorectal cancer cells [6]: largely reduced
- TCF/LEF transcriptional activity [7]: reduced
